Reference: US6368788B1 (priority 1987, dated 2002)
Marks after values point to notes of the source that are not given here.

Columns and labels:
Corneal diseases = conditions: in vivo
Pneumocystis carinii = Pneumocystis carinii lung infection in cortisone-immunocompromised rats; assay type: in vivo; conditions: for Lung (bacteria): mean ± S.E., magnification 400X; for Lymphocytes / Neutrophils / Total Leukocytes / Lymphocytes (% Normal) / Neutrophils (% normal) / Total Leukocytes (% normal): peripheral blood at 79 days; for Lymphocytes (% Normal) / Neutrophils (% normal) / Total Leukocytes (% normal): % of day 0
Experimental: Corticosteroids were administered to rats to induce an immunocompromised state in which an opportunistic infection with Pneumocystis carinii could be established. The immunocompromised state was induced by administering cortisone acetate im twice weekly at a dose of 25 mg/kg over the entire 12 week course of the study. Pneumocystis carinii lung infection was initiated by intranasal instillation on day 0. Prophylactic tetracycline was administered po in the drinking water ([…]), and peripheral blood differential counts were monitored over the next 12 weeks. In control (untreated) Pneumocystis-infected animals, differential counts, body weight, and lymphocyte counts began dropping at about 30-39 days and lung infection was evident histologically by about day 60-69. At day 80, tetracycline treatment was discontinued in all groups. By day 80 in this animal model, mean body weight of the animals had dropped by approximately 30% from the values recorded on day 0. Groups were comprised of 15 rats each.
L-Glu-L-Trp treatments were administered according to the following protocol: 10 consecutive daily im injections of 10 μg/kg or 100 μg/kg of L-Glu-L-Trp on days 0 through 9, 30 through 39, and 60 through 69 of the study. Differential cell counts in peripheral blood (TABLE 80) and lung histology (i.e., with enumeration of the number of P. carinii/10 microscopic fields—at 400× magnification) were used to monitor the course of the opportunistic infection.

Bone fractures = test: Bone fractures; parameters: species or system human; conditions: in vivo
Experimental: L-Glu-L-Trp was applied to 44 patients with bone fractures of various origin. The control group comprised 28 patients. L-Glu-L-Trp was administered intramuscularly or intranasally in a single dose of 100 μg daily for 10 days.

Wound healing = test: Wound healing; parameters: species or system human; conditions: in vivo
Experimental: L-Glu-L-Trp was administered to 37 patients with wounds of various origins, types and localizations. Patients in the control group (24) received conventional treatments. L-Glu-L-Trp was administered daily im (or topically) on each of 10 consecutive days. The im dose was 100 μg.

[1] = test system: peripheral blood lymphocytes; test: Protocol A3 Group 1B: atypical pyoderma; assay type: in vivo, human
[2] = Frequently ill children with respiratory infection, asthma and allergy (Protocol C); assay type: in vivo, human
Gingivitis = test: Gingivitis; parameters: species or system human; conditions: in vivo
Experimental: Patients were treated for gingival disease by subcutaneous administration of L-Glu-L-Trp into the area of the gingiva. […] Approximately 160 patients were studied, 80 patients were treated with L-Glu-L-Trp and an equal number were treated using conventional therapy (control). […] Normalization of immunologic indices and coagulation in the L-Glu-L-Trp treated patients was correlated with favorable clinical outcome.

Pseudomonas aeruginosa = test: Survival after acute peritonitis with LD100 dose of Pseudomonas aeruginosa; assay type: in vivo, mice
[3] = Group 1B atypical pyoderma, after L-Glu-L-Trp Therapy (n = 10)

Question: Which results are given for L-Glu-L-Trp?
Answer: Clinical outcome (Corneal diseases): stimulates regeneration of corneal epithelium and restoration of visual acuity; Numbers of lung bacteria, % of saline treated control (Pneumocystis carinii; 10 μg/kg): about 33%; Lung (bacteria) (Pneumocystis carinii; 10 μg/kg im): 53 ± 32 P. carinii bacteria per 10 sections; Numbers of lung bacteria, % of saline treated control (Pneumocystis carinii; 100 μg/kg): ~43%; Lung (bacteria) (Pneumocystis carinii; 100 μg/kg im): 70 ± 33 P. carinii bacteria per 10 sections; Leukocyte counts, % of normal (Pneumocystis carinii; day 79): 45-47%; Lymphocyte counts, % of normal (Pneumocystis carinii; day 79): 45%; Lymphocytes (Pneumocystis carinii; 10 μg/kg im): 4.7 ± 1.2 ×10^6/ml; Neutrophils (Pneumocystis carinii; 10 μg/kg im): 2.0 ± 0.7 ×10^6/ml; Total Leukocytes (Pneumocystis carinii; 10 μg/kg im): 8.1 ± 2.3 ×10^6/ml; Lymphocytes (% Normal) (Pneumocystis carinii; 10 μg/kg im): 45%; Neutrophils (% normal) (Pneumocystis carinii; 10 μg/kg im): 41%; Total Leukocytes (% normal) (Pneumocystis carinii; 10 μg/kg im): 47%; Lymphocytes (Pneumocystis carinii; 100 μg/kg im): 4.7 ± 1.4 ×10^6/ml; Neutrophils (Pneumocystis carinii; 100 μg/kg im): 1.5 ± 0.5 ×10^6/ml; Total Leukocytes (Pneumocystis carinii; 100 μg/kg im): 7.8 ± 1.8 ×10^6/ml; Lymphocytes (% Normal) (Pneumocystis carinii; 100 μg/kg im): 45%; Neutrophils (% normal) (Pneumocystis carinii; 100 μg/kg im): 31%; Total Leukocytes (% normal) (Pneumocystis carinii; 100 μg/kg im): 45%; Clinical outcome (Bone fractures): prevented the development of infectious complications, reduced pain syndrome and treatment duration; Clinical outcome (Wound healing): accelerated wound healing; B-Lymphocytes [1, 3]: 0.14 ± 0 ×10^9/L; B-Lymphocytes % Normal Value [1, 3]: (29%); B-Lymphocytes (%) [1, 3]: 8.5 ± 1%; Basophils (%) [1, 3]: 0.1 ± 0%; Eosinophils (%) [1, 3]: 0.5 ± 1%; Erythrocytes [1, 3]: 4.1 ± 0.1 10^12/L; IgA [1, 3]: 2.21 ± 0 g/L; IgA % Normal Value [1, 3]: (117%); IgG [1, 3]: 16.6 ± 2 g/L; IgG % Normal Value [1, 3]: (154%); IgM [1, 3]: 1.64 ± 0 g/L; IgM % Normal Value [1, 3]: (104%); Leukocytes [1, 3]: 6.2 ± 1 ×10^9/L; Leukocytes % Normal Value [1, 3]: (93%); Lymphocytes [1, 3]: 2.14 ± 0 ×10^9/L; Lymphocytes % Normal Value [1, 3]: (76%); Lymphocytes, % [1, 3]: 34.5 ± 4%; Monocytes, % [1, 3]: 2.3 ± 1.6%; Neutrophils, % [1, 3]: 66.5 ± 3.2%; T-Lymphocytes [1, 3]: 0.87 ± 0 ×10^9/L; T-Lymphocytes % Normal Value [1, 3]: (51%); T-Lymphocytes (%) [1, 3]: 55.1 ± 6%; T-helper [1, 3]: 0.53 ± 0 ×10^9/L; T-helper % Normal Value [1, 3]: (40%); T-helper (%) [1, 3]: 32.1 ± 3%; T-suppressor [1, 3]: 0.49 ± 0 ×10^9/L; T-suppressor % Normal Value [1, 3]: (126%); T-suppressor (%) [1, 3]: 23.1 ± 5%; Blast Transform., Con-A ([1]; Group 1B, L-Glu-L-Trp Therapy): 96.1 ± 4 % of PBL; Blast Transform., PHA ([1]; Group 1B, L-Glu-L-Trp Therapy): 87.5 ± 5 % of PBL; Blast Transform., Staph-A ([1]; Group 1B, L-Glu-L-Trp Therapy): 75.3 ± 1 % of PBL; Clinical outcome ([1]; in vivo): did not turn out to be effective clinically; Children with a decrease in the number of respiratory infections ([2]; 6-12 months): 92.9%; T-lymphocytes in peripheral blood ([2]; after first course): statistically significant increase was noted in both the absolute number and percentage of T-lymphocytes; Reduction in attacks of bronchial asthma ([2]; asthma patients): 4.2 fold; Average reduction in the number of infections ([2]; in vivo): 3.6 fold; Decrease of average length of illness ([2]; in vivo): 4 to 5 days; Patients in whom food allergies disappeared ([2]; in vivo): 67.8%; Clinical outcome (Gingivitis): arrest of gingival disease; Percentage Survivors (Pseudomonas aeruginosa; 24 hours after injection, Glu-Trp dose 10 μg/kg (alone or + Gentamycin 1 MED)): 55.6* %; Percentage Survivors (Pseudomonas aeruginosa; 24 hours after injection, Glu-Trp dose 100 μg/kg (alone or + Gentamycin 1 MED)): 66.7*† %; Percentage Survivors (Pseudomonas aeruginosa; 24 hours after injection, Glu-Trp dose 1000 μg/kg (alone or + Gentamycin 1 MED)): 77.8*† %; Percentage Survivors (Pseudomonas aeruginosa; 48 hours after injection, Glu-Trp dose 10 μg/kg (alone or + Gentamycin 1 MED)): 5.6%; Percentage Survivors (Pseudomonas aeruginosa; 48 hours after injection, Glu-Trp dose 100 μg/kg (alone or + Gentamycin 1 MED)): 38.9* %; Percentage Survivors (Pseudomonas aeruginosa; 48 hours after injection, Glu-Trp dose 1000 μg/kg (alone or + Gentamycin 1 MED)): 44.4* %; Percentage Survivors (Pseudomonas aeruginosa; 96 hours after injection, Glu-Trp dose 10 μg/kg (alone or + Gentamycin 1 MED)): 5.6%; Percentage Survivors (Pseudomonas aeruginosa; 96 hours after injection, Glu-Trp dose 100 μg/kg (alone or + Gentamycin 1 MED)): 38.9%; Percentage Survivors (Pseudomonas aeruginosa; 96 hours after injection, Glu-Trp dose 1000 μg/kg (alone or + Gentamycin 1 MED)): 44.4* %; Survival (Pseudomonas aeruginosa; alone or with Gentamycin): significantly increased the percentage of mice surviving a lethal challenge of Pseudomonas
